Laboratory results from paper PMC5444442, “Flagellin peptide flg22 gains access to long-distance trafficking in Arabidopsis via its receptor, FLS2” (Journal of Experimental Botany, 2017).
Peptide text beside a SMILES is read from it.

Legend:
[1] = test system: Arabidopsis leaf discs; test: Subcellular localization, uptake and accumulation of flg22 in leaf discs; format: cell-based, Arabidopsis thaliana; conditions: Col leaf discs
Procedure: Leaf discs were floated (abaxial side down) on 1–5 μM TAMRA–flg22 or 5–10 μM FAM–flg22 solution (in water) at room temperature for the indicated time (lower concentrations were used for overnight treatments). Inhibitors that affect endocytosis, MG132 (Sigma-Aldrich, 50 μM) or 2,3-butanedione monoxime (BDM; Sigma-Aldrich, 50 mM) were added at the same time as the peptides. FM4-64 (Invitrogen, 6–8 μM) or 2′,7′-bis-(2-carboxyethyl)-5-(and-6)-carboxyfluorescein (BCECF)-AM (cleaved by an endogenous plant esterase to BCECF, Invitrogen, 20–40 μM) mixed with peptide solution was vacuum infiltrated for 2 min into leaf discs ([Kang et al., 2014]) prior to incubation (floating on peptide/dye solution) for the indicated time. In some experiments FAM–Y-flg22 was used with results similar to FAM–flg22.
For experiments with mixed peptides, leaf discs were floated for the indicated time on 2 μM FAM–flg22, FAM–scrambled peptide or fluorescein mixed with 1 μM TAMRA–flg22. In all experiments, leaf discs were washed after treatment by gently shaking for several minutes in water and the abaxial side was imaged by confocal or epifluorescence microscopy (see ‘Microscopy’). Fluorescence intensity profiles were generated with ImageJ, as in [Spallek et al., (2013)] and [Bozkurt et al. (2015)] (see ‘Data analysis’).
Confocal images were obtained using a Zeiss LSM710 laser-scanning confocal microscope (Zeiss, Germany) as described in [Kang et al. (2014)]. Fluorescence was visualized as follows: GFP/FAM/fluorescein/BCECF excitation (ex) 488 nm/emission (em) 495–545 nm; TAMRA ex 561 nm/em 566–620 nm; FM4-64: ex 561 nm/em 686–758 nm. Green and red fluorescence was acquired for the same field using a sequential acquisition mode.
Fluorescence intensity profiles were generated with ImageJ (http://rsb.info.nih.gov/ij, last accessed 6 April 2017) using RGB Profiler and Color Profiler. Fluorescent puncta were manually counted in 20 μm × 20 μm confocal image areas as in [Irani et al. (2012)] and [Chaparro-Garcia et al., (2015)] and shown as a fraction ([Irani et al., 2012]; [Choi et al., 2013]). […]

[2] = test system: Arabidopsis plants; test: Long-distance transport after surface application of fluorescent peptide; format: in vivo, Arabidopsis thaliana; conditions: 1 d
Procedure: We applied 10–20 μl of 5 μM TAMRA–flg22 (without or with inhibitors: 50 μM MG132 or 50 mM BDM) to a filter paper disc placed on the adaxial side of one leaf of in vitro-grown Arabidopsis plants and distal tissues were imaged by confocal microscopy after 1 d. For experiments with mixed peptides, 5 μM TAMRA–flg22 + 10 μM FAM–scrambled peptides were used.
[^14C]sucrose radioactivity was quantified in a scintillation counter.

[3] = target: T1, FLS2 (Arabidopsis thaliana, UniProt Q9FL28); test: ROS assay in leaf discs; format: cell-based; conditions: flg22-induced ROS; Supplementary Fig. S1B
T1 construct: treating Col and fls2 leaf discs (prefloated on water overnight) with 1 μM peptide and measuring ROS induction; from tissue; host or cells: Arabidopsis thaliana Col leaf discs (fls2 mutant as negative control)
Procedure: Bioactivity was verified for each batch of peptides by treating Col and fls2 leaf discs (prefloated on water overnight) with 1 μM peptide and measuring ROS induction as described in ([Tateda et al., 2014]).

[4] = test system: Arabidopsis FLS2; conditions: ref Bauer et al., 2001; cited from earlier work
Description: The fate of flg22 inside plant cells is similar to that of Potato mop-top and Cauliflower mosaic virus movement proteins, which are endocytosed and delivered to pre-vacuoles/late endosomal structures ([Haupt et al., 2005]; [Carluccio et al., 2014]). Endosomal trafficking of the movement proteins is essential for the spread of viruses to distal tissues, as is endocytosis of flg22 for efficient peptide movement to systemic tissue, although ...

T1 sequence (Q9FL28 24-1173): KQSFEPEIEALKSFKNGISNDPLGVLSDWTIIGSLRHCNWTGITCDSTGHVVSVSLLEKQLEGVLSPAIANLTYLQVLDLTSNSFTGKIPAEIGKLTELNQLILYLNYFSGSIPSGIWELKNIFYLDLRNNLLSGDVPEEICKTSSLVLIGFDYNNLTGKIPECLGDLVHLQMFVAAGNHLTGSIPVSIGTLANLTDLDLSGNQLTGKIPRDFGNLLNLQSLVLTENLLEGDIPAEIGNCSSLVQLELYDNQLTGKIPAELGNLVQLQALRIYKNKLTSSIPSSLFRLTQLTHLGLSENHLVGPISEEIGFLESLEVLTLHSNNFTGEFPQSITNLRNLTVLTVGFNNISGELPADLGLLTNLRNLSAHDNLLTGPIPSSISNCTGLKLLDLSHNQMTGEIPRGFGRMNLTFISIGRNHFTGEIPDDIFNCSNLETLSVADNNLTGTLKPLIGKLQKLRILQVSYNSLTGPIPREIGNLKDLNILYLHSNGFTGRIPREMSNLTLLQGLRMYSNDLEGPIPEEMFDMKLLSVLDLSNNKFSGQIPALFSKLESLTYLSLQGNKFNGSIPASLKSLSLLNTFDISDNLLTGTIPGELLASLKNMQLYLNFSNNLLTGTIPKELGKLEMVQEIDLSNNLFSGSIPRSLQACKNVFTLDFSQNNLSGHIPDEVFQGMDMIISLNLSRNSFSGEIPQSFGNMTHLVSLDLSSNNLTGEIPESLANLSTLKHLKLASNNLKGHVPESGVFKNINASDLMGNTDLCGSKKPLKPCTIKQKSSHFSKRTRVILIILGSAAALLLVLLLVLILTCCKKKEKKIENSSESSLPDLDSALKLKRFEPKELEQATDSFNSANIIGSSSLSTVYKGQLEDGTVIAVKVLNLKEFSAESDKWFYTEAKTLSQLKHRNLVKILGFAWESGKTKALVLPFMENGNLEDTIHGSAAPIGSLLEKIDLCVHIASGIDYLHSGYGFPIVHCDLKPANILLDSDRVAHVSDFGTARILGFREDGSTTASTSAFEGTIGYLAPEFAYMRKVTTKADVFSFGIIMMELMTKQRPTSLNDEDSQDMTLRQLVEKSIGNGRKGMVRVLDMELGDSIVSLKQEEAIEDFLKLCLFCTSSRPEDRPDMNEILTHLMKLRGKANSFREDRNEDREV
T1 sequence (Q94F62 26-615 partner): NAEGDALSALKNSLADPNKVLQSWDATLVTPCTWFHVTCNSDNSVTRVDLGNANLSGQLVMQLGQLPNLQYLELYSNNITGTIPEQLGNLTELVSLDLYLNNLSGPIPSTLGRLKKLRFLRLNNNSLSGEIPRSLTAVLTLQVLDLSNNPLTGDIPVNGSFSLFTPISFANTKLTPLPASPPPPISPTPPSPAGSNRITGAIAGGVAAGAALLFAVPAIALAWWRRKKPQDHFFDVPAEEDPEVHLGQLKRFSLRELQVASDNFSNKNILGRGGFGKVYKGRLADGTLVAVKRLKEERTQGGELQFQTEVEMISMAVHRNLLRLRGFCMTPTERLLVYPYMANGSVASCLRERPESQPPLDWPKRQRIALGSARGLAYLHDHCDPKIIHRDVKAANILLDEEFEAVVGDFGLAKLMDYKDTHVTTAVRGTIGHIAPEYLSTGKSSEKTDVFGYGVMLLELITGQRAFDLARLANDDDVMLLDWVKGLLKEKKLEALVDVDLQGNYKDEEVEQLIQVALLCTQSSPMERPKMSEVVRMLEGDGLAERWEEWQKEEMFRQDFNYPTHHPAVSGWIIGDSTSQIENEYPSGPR

| Compound | effect of inhibitor on initial binding/uptake of TAMRA–flg22 ([1]; 5 μM TAMRA–flg22 with 50 μM MG132 or 50 mM BDM added simultaneously, 1–2 h) | effect of inhibitor on overnight accumulation of TAMRA–flg22 in vacuoles ([1]; 1–2 μM TAMRA–flg22 with 50 μM MG132 or 50 mM BDM, overnight) | effect of inhibitor on long-distance movement of TAMRA–flg22 ([2]; Col, 5 μM TAMRA–flg22 with 50 μM MG132 or 50 mM BDM on filter paper disc) | effect of endocytosis inhibitor on defense activation measured by ROS production [3] | reversibility of binding to microsomal membranes [4] | amount detected in distal organs ([2]; fls2 and bak1 mutants versus Col, 5 μM on filter paper disc, confocal, P<0.0002, n≥7) |
| --- | --- | --- | --- | --- | --- | --- |
| CC(=O)C(C)=NO [BDM, 2,3-butanedione monoxime, reference compound] | did not prevent initial peptide binding/uptake | did not accumulate in vacuoles | prevented | impaired defense activation |  |  |
| CC[C@H](C)[C@H](NC(=O)[C@H](CCC(N)=O)NC(=O)[C@H](CC(C)C)NC(=O)CNC(=O)[C@H](C)NC(=O)[C@H](C)NC(=O)[C@H](CC(=O)O)NC(=O)[C@H](CC(=O)O)NC(=O)[C@H](CCCCN)NC(=O)[C@H](C)NC(=O)[C@H](CO)NC(=O)[C@H](CC(N)=O)NC(=O)[C@@H](NC(=O)[C@H](CCCNC(=N)N)NC(=O)[C@H](CO)NC(=O)CNC(=O)[C@@H](NC(=O)[C@H](CO)NC(=O)[C@H](CC(C)C)NC(=O)[C@H](CCCNC(=N)N)NC(=O)[C@@H](N)CCC(N)=O)[C@@H](C)O)[C@@H](C)CC)C(=O)N[C@@H](C)C(=O)O [flg22] (H-QRLSTGSRINSAKDDAAGLQIA-OH) |  |  |  |  | reversible | significantly less |
